Results reported in US12331041B2, “GLP-1 receptor agonists and uses thereof” (Pfizer Inc., priority 2018, dated 2025).
pEC50: −log10 of the molar value. Where a name gives a salt, the structure may show the parent alone.

Key:
human GLP-1R [1] = molecular target: T1, human GLP-1R (Homo sapiens, UniProt P43220, G168S); assay: CHO GLP-1R Clone H6 - Assay 1 (HTRF cAMP agonist assay); format: cell-based; settings: for pEC50: CHO Clone H6, high GLP-1R density, cAMP, geometric mean; for Emax: CHO Clone H6, relative to saturating full agonist GLP-1 7-36 (1 μM), arithmetic mean
T1 construct: expressed in transfected cells
Procedure: GLP-1R-mediated agonist activity was determined with a cell-based functional assay utilizing an HTRF (Homogeneous Time-Resolved Fluorescence) cAMP detection kit (cAMP HI Range Assay Kit; CisBio cat #62AM6PEJ) that measures cAMP levels in the cell. The method is a competitive immunoassay between native cAMP produced by the cells and exogenous cAMP labeled with the dye d2, The tracer binding is visualized by a mAb anti-cAMP labeled with Cryptate. The specific signal (i.e. energy transfer) is inversely proportional to the concentration of cAMP in either standard or experimental sample.
The human GLP-1R coding sequence (NCBI Reference Sequence NP_002053.3, including naturally-occurring variant Gly168Ser) was subcloned into pcDNA3 (Invitrogen) and a cell line stably expressing the receptor was isolated (designated Clone H6).
(§1) A 1 mL sample of the cell suspension in growth media was counted on a Becton Dickinson ViCell to determine cell viability and cell count per mL. The remaining cell suspension was then adjusted with growth media to deliver 2000 viable cells per well using a Matrix Combi Multidrop reagent dispenser, and the cells were dispensed into a white 384 well tissue culture treated assay plate (Corning 3570). The assay plate was then incubated for 48 hours at 37° C. in a humidified environment in 5% carbon dioxide.
Varying concentrations of each compound to be tested (in DMSO) were diluted in assay buffer (HBSS with Calcium/Magnesium (Lonza/BioWhittaker cat #10-527F)/0.1% BSA (Sigma Aldrich cat #A7409-1L)/20 mM HEPES (Lonza/BioWhittaker cat #17-737E) containing 100 μM 3-isobutyl-1-methylxanthin (IBMX; Sigma cat #15879). The final DMSO concentration is 1%.
After 48 hours, the growth media was removed from the assay plate wells, and the cells were treated with 20 μL of the serially diluted compound in assay buffer for 30 minutes at 37° C. in a humidified environment in 5% carbon dioxide. Following the 30 minute incubation, 10 μL of labeled d2 cAMP and 10 μL of anti-cAMP antibody (both diluted 1:20 in cell lysis buffer; as described in the manufacturer's assay protocol) were added to each well of the assay plate. The plates were then incubated at room temperature and after 60 minutes, changes in the HTRF signal were read with an Envision 2104 multi-label plate reader using excitation of 330 nm and emissions of 615 and 665 nm. Raw data were converted to nM cAMP by interpolation from a cAMP standard curve (as described in the manufacturer's assay protocol) and the percent effect was determined relative to a saturating concentration of the full agonist GLP-17-36 (1 μM) included on each plate. EC50 determinations were made from agonist dose-response curves analyzed with a curve fitting program using a 4-parameter logistic dose response equation.

human GLP-1R [2] = molecular target: T2, human GLP-1R (Homo sapiens, UniProt P43220, L260F); assay: CHO GLP-1R Clone C6 - Assay 2 (HTRF cAMP agonist assay); format: cell-based; settings: for pEC50: CHO clone C6, low GLP-1R density, cAMP, geometric mean; for Emax: CHO clone C6, relative to saturating full agonist GLP-1 (1 μM), arithmetic mean
T2 construct: expressed in transfected cells; host or cells: CHO Flp-In T-REx, clonal line C6 (pcDNA5-FRT-TO)
Procedure: GLP-1R-mediated agonist activity was determined with a cell-based functional assay utilizing an HTRF (Homogeneous Time-Resolved Fluorescence) cAMP detection kit (cAMP HI Range Assay Kit; Cis Bio cat #62AM6PEJ) that measures cAMP levels in the cell. The method is a competitive immunoassay between native cAMP produced by the cells and exogenous cAMP labeled with the dye d2. The tracer binding is visualized by a mAb anti-cAMP labeled with Cryptate. The specific signal (i.e. energy transfer) is inversely proportional to the concentration of cAMP in either a standard or an experimental sample.
The human GLP-1R coding sequence (NCBI Reference Sequence NP_002053.3, including naturally-occurring variant Leu260Phe) was subcloned into pcDNA5-FRT-TO and a clonal CHO cell line stably expressing a low receptor density was isolated using the Flp-In™ T-Rex™ System, as described by the manufacturer (ThermoFisher).
as §1, with “deliver 1600” for “deliver 2000”, “48 h” for “48 hours”, “environment (95% O2,” for “environment in”, “5% CO2)” for “5% carbon dioxide.”
Varying concentrations of each compound to be tested (in DMSO) were diluted in assay buffer [HBSS with Calcium/Magnesium (Lonza/BioWhittaker cat #10-527F)/0.1% BSA (Sigma Aldrich cat #A7409-1L)/20 mM HEPES (Lonza/BioWhittaker cat #17-737E)] containing 100 μM 3-isobutyl-1-methylxanthin (IBMX; Sigma cat #15879). The final DMSO concentration in the compound/assay buffer mixture is 1%.
After 48 h, the growth media was removed from the assay plate wells, and the cells were treated with 20 μL of the serially diluted compound in assay buffer for 30 min at 37° C. in a humidified environment (95% O2, 5% CO2). Following the 30 min incubation, 10 μL of labeled d2 cAMP and 10 μL of anti-cAMP antibody (both diluted 1:20 in cell lysis buffer; as described in the manufacturer's assay protocol) were added to each well of the assay plate. The plates were then incubated at room temperature and after 60 minutes, changes in the HTRF signal were read with an Envision 2104 multi-label plate reader using excitation of 330 nm and emissions of 615 and 665 nm. Raw data were converted to nM cAMP by interpolation from a cAMP standard curve (as described in the manufacturer's assay protocol) and the percent effect was determined relative to a saturating concentration of the full agonist GLP-1 (1 μM) included on each plate. EC50 determinations were made from agonist dose response curves analyzed with a curve fitting program using a 4-parameter logistic dose response equation.

T2 sequence (P43220 24-463 L260F): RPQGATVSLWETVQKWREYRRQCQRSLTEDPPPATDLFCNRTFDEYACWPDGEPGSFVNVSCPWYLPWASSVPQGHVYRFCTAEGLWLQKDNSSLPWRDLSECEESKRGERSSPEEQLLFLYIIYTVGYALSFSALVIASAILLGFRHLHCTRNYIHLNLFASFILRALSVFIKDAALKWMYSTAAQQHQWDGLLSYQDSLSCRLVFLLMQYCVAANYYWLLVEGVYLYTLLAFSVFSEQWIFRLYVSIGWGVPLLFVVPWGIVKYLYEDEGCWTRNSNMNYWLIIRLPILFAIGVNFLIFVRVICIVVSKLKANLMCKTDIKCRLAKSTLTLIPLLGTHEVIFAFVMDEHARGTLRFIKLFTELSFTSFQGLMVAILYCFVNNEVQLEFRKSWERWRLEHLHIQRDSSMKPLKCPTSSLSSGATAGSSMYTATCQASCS
T1 sequence (P43220 24-463 G168S): as the sequence (P43220 24-463 L260F) above, with G145S, F237L counted along it

Molecule `N#Cc1ccc(COc2ncccc2C2CCN(Cc3nc4ccc(C(=O)O)cc4n3C[C@@H]3CCCO3)CC2)c(F)c1` [Example 13, 2-[(4-{2-[(4-cyano-2-fluorobenzyl)oxy]pyridin-3-yl}piperidin-1-yl)methyl]-1-[(2S)-tetrahydrofuran-2-ylmethyl]-1H-benzimidazole-6-carboxylic acid, trifluoroacetate salt] has a pEC50 (human GLP-1R [1]) of 8.22, an Emax (human GLP-1R [1]) of 80% and a pEC50 (human GLP-1R [2]) of 6.57. It also gave an Emax (human GLP-1R [2]) of 91%.
With `N#Cc1ccc(COc2ccc(F)c(N3CCC4(CC3)CC4c3nc4ccc(C(=O)O)cc4n3CC3CCO3)n2)c(F)c1` (single isomer, unassigned) [Example 54] the pEC50 (human GLP-1R [1]) was 7.20, the Emax (human GLP-1R [1]) was 76% and the pEC50 (human GLP-1R [2]) was 5.47. It also gave an Emax (human GLP-1R [2]) of 93%.
Molecule `O=C(O)c1ccc2nc(CN3CCC(c4cccnc4OCc4ccc(Cl)cc4F)CC3)n(C[C@@H]3CCO3)c2c1` [Example 1, Ammonium 2-[(4-{2-[(4-chloro-2-fluorobenzyl)oxy]pyridin-3-yl}piperidin-1-yl)methyl]-1-[(2S)-oxetan-2-ylmethyl]-1H-benzimidazole-6-carboxylate] has a pEC50 (human GLP-1R [1]) of 9.00, an Emax (human GLP-1R [1]) of 84% and a pEC50 (human GLP-1R [2]) of 7.70. For the same molecule, the Emax (human GLP-1R [2]) was 95%.
`N#Cc1ccc(COc2cccc(N3CCC4(CC3)CC4c3nc4ccc(C(=O)O)cc4n3CC3CCO3)n2)c(F)c1` (single isomer, unassigned) [Example 35] showed a pEC50 (human GLP-1R [1]) of 6.48, an Emax (human GLP-1R [1]) of 85% and a pEC50 (human GLP-1R [2]) of 4.89. It also gave an Emax (human GLP-1R [2]) of 100%.
`Cn1cnnc1Cn1c(C2CC23CCN(c2nc(OCc4ccc(Cl)cc4F)c(F)cc2F)CC3)nc2ccc(C(=O)O)cc21` (centres unmarked) [Example 60, 2-(6-{6-[(4-chloro-2-fluorobenzyl)oxy]-3,5-difluoropyridin-2-yl}-6-azaspiro[2.5]oct-1-yl)-1-[(4-methyl-4H-1,2,4-triazol-3-yl)methyl]-1H-benzimidazole-6-carboxylic acid, trifluoroacetate salt] showed a pEC50 (human GLP-1R [1]) of 8.30, an Emax (human GLP-1R [1]) of 91% and a pEC50 (human GLP-1R [2]) of 6.96. It also gave an Emax (human GLP-1R [2]) of 110%.
In the case of `CCn1nncc1Cn1c(CN2CCC(c3ccnc(OCc4ccc(Cl)cc4F)n3)CC2)nc2ccc(C(=O)O)cc21` [Example 64, 2-[(4-{2-[(4-chloro-2-fluorobenzyl)oxy]pyrimidin-4-yl}piperidin-1-yl)methyl]-1-[(1-ethyl-1H-1,2,3-triazol-5-yl)methyl]-1H-benzimidazole-6-carboxylic acid], the pEC50 (human GLP-1R [1]) was 7.62, the Emax (human GLP-1R [1]) was 96% and the pEC50 (human GLP-1R [2]) was 7.00. The Emax (human GLP-1R [2]) was 100%.
In the case of `CCn1cncc1Cn1c(CN2CCC(c3nccnc3OCc3ccc(C#N)cc3F)CC2)nc2ccc(C(=O)O)cc21` [Example 27, 2-[(4-{3-[(4-cyano-2-fluorobenzyl)oxy]pyrazin-2-yl}piperidin-l-yl)methyl]-1-[(1-ethyl-1H-imidazol-5-yl)methyl]-1H-benzimidazole-6-carboxylic acid, trifluoroacetate salt], the pEC50 (human GLP-1R [1]) was 9.08, the Emax (human GLP-1R [1]) was 86% and the pEC50 (human GLP-1R [2]) was 7.80. For the same molecule, the Emax (human GLP-1R [2]) was 85%.
Work on `CCn1nncc1Cn1c(CN2CCC(c3cccnc3OCc3ccc(C#N)cc3F)CC2)nc2ccc(C(=O)O)cc21` [Example 17, 2-[(4-{2-[(4-cyano-2-fluorobenzyl)oxy]pyridin-3-yl}piperidin-1-yl)methyl]-1-[(1-ethyl-1H-1,2,3-triazol-5-yl)methyl]-1H-benzimidazole-6-carboxylic acid, trifluoroacetate salt] yielded a pEC50 (human GLP-1R [1]) of 8.22, an Emax (human GLP-1R [1]) of 86% and a pEC50 (human GLP-1R [2]) of 6.82. For the same molecule, the Emax (human GLP-1R [2]) was 91%.
With `N#Cc1ccc(COc2nc(N3CCC4(CC3)CC4c3nc4ccc(C(=O)O)cc4n3Cc3ncco3)c(F)cc2F)c(F)c1` (centres unmarked) [Example 61, 2-(6-{6-[(4-cyano-2-fluorobenzyl)oxy]-3,5-difluoropyridin-2-yl}-6-azaspiro[2.5]oct-1-yl)-1-(1,3-oxazol-2-ylmethyl)-1H-benzimidazole-6-carboxylic acid, trifluoroacetate salt] the pEC50 (human GLP-1R [1]) was 8.96, the Emax (human GLP-1R [1]) was 68% and the pEC50 (human GLP-1R [2]) was 7.59. It also gave an Emax (human GLP-1R [2]) of 74%.
In the case of `O=C(O)c1ccc2nc(C3CC34CCN(c3nc(OCc5ccc(Cl)cc5F)ncc3F)CC4)n(CCn3cncn3)c2c1` (single isomer, unassigned) [Example 41, 2-(6-{2-[(4-chloro-2-fluorobenzyl)oxy]-5-fluoropyrimidin-4-yl}-6-azaspiro[2.5]oct-1-yl)-1-[2-(1H-1,2,4-triazol-1-yl)ethyl]-1H-benzimidazole-6-carboxylic acid, trifluoroacetate salt, from P7], the pEC50 (human GLP-1R [1]) was 8.12, the Emax (human GLP-1R [1]) was 84% and the pEC50 (human GLP-1R [2]) was 6.89. The Emax (human GLP-1R [2]) was 96%.
`O=C(O)c1ccc2nc(CN3CCC(c4ccnc(OCc5ccc(Cl)cc5F)n4)CC3)n(C[C@@H]3CCO3)c2c1` [Example 62, 2-[(4-{2-[(4-Chloro-2-fluorobenzyl)oxy]pyrimidin-4-yl}piperidin-1-yl)methyl]-1-[(2S)-oxetan-2-ylmethyl]-1H-benzimidazole-6-carboxylic acid] was tested, and the pEC50 (human GLP-1R [1]) was 8.36, the Emax (human GLP-1R [1]) was 86% and the pEC50 (human GLP-1R [2]) was 6.96. The Emax (human GLP-1R [2]) was 98%.
In the case of `C[C@H]1CN(c2ccnc(OCc3ccc(Cl)cc3F)n2)CCN1Cc1nc2ccc(C(=O)O)cc2n1C[C@@H]1CCO1` [Example 73, 2-{[(2S)-4-{2-[(4-chloro-2-fluorobenzyl)oxy]pyrimidin-4-yl}-2-methylpiperazin-1-yl]methyl}-1-[(2S)-oxetan-2-ylmethyl]-1H-benzimidazole-6-carboxylic acid], the pEC50 (human GLP-1R [1]) was 8.62, the Emax (human GLP-1R [1]) was 84% and the pEC50 (human GLP-1R [2]) was 7.05. The Emax (human GLP-1R [2]) was 100%.
In the case of `N#Cc1ccc(COc2ncccc2C2CCN(Cc3nc4ccc(C(=O)O)cc4n3C[C@@H]3CCO3)CC2)c(F)c1` [Example 5, 2-[(4-{2-[(4-cyano-2-fluorobenzyl)oxy]pyridin-3-yl}piperidin-1-yl)methyl]-1-[(2S)-oxetan-2-ylmethyl]-1H-benzimidazole-6-carboxylic acid], the pEC50 (human GLP-1R [2]) was 7.38 and the Emax (human GLP-1R [2]) was 95%.
